Test results as given in patent US20130184316A1, “METHODS FOR DIAGNOSING AND TREATING CONCUSSIVE DISORDERS” (priority 2010, published 2013).

Assays:
[1] = system: patients with type-2 episodic ataxia (EA2); settings: literature reports; cited from earlier work
subject with PCS [2] = test: Single subject double blind placebo controlled trial of 4AP with open-label rounds, overall findings; format: in vivo, human
Procedure: A single subject, prospective, double blind, placebo controlled trial of 4AP was then conducted in this individual. IRB approvals were obtained from all participating institutions and Subject gave written informed consent for all parts of the study. After a 4-week medication washout period, the Subject was randomly assigned a week's course of placebo, followed by a weeklong medication washout period, followed by another week on 4-AP (10 mg twice daily). Based on the medication half-life, a one week washout period was presumed to be sufficient. Subject and assessors were blinded to treatment allocation.
Measurements conducted at identical times at baseline and on each of the subsequent 3 weeks of the study included: • Balance and mobility assessed by Hi-Mat test (Arch. Phys. Med. Rehabil. 2006, 87(3), 437-442; hereby incorporated by reference in its entirety). • Subjective symptom assessment using the Rivermead Post-Concussion Questionnaire (Clin. Rehabil. 2005, 19(8), 878-887; hereby incorporated by reference in its entirety). • Neuropsychological assessment, consisting of the digit span and cancellation tests from the Wechsler Adult Intelligence Scale, 4th edition (Coalson, D. L., Engi-Raiford, S. Wechsler Adult Intelligence Scale, 4th Ed., in Technical and Interpretive Manual, 4th Ed., San Antonio: Pearson (2008); hereby incorporated by reference in its entirety), the California Verbal Learning Test II (CVLT) (Delis, D. C., Kramer, J. H., Kaplan, E., Ober, B. A. in CVLT-II Manual, San Antonio: The Psychological Corporation (2000); hereby incorporated by reference in its entirety), the Verbal Fluency Test (Connors Continuous Performance Test Computer II Program Version 5 Users Manual, Toronto: Multi-Health Systems, Inc. (2002); hereby incorporated by reference in its entirety), and the Connors Continuous Performance Test (J. Nervous Ment. Dis. 1985, 173(6), 353-357; hereby incorporated by reference in its entirety). • Videonystagmography (VNG) and rotary chair (RC) vestibular testing […]

subject with PCS [3] = test: Abbreviated Abnormal Involuntary Movement Scale (AIMS), blinded raters of video recordings; format: in vivo, human
Source text: During testing sessions, study personnel noted relapse of paroxysmal grimacing, weakness, sialorrhea, slurred speech, and slowed responses that the Subject had experienced prior to starting 4AP. In an effort to corroborate the presence of abnormal movements, video recordings of identical testing segments were reviewed by raters, physical, occupational, and speech therapists all with experience working with TBI. Raters were blinded to subject history and study variables. Absent any established rating scales for the unusual phenomenon observed, an abbreviated version of the Abnormal Involuntary Movement Scale (AIMS) was used (Prog. Brain Res. 2007, 161, 327-338; hereby incorporated by reference in its entirety).

[4] = two open phases, extended medication use

Structure (SMILES): Nc1ccncc1 [4-AP, 4-Amino pyridine]
- Symptoms of EA2 (including downbeat nystagmus) [1]: both relieved and prevented
- Balance/mobility, symptoms and neuropsychological evaluations (subject with PCS [2]; active phase compared with the other blinded phases (baseline, placebo, washout)): similar
- Balance/mobility and subjective symptoms (subject with PCS [2]; [4]): improvement
- Cancellation and CVLT: cognitive processing speed and auditory memory (subject with PCS [2]; [4]): improved
- AIMS, active medication phase compared to placebo and washout conditions (subject with PCS [3]; blinded phase, 4-AP 10 mg twice daily for one week): improvement
- AIMS Subscale (subject with PCS [3]; session 4 Active: blinded, one week on 4-AP 10 mg twice daily, placebo 15.0, washout 9.5): 4.5
